According to patent publication US20080131511A1, “Pharmaceutical Composition for Treatment of Tear and Salivary Fluid Drying” (Astellas Pharma, Inc., priority 2004, published 2008):

Experiment: Calculation of plasma concentration under stationary state (Css) and PT ratio from phase I data
Parameters: species or system human
Settings: for concentration in plasma under stationary state (Css): calculated from AUC and T1/2 at 20 mg; for PT ratio (Cmax/Cmin): calculated
Text: As described in the above, in order to increase secretion of salivary and tear fluid and to obtain effect of salivary gland and lacrimal gland cell growth, more sufficiently than usual, it is desirable to control drug release per unit hour of the compound A from a sustained release pharmaceutical preparation, and essentially, it is ideal to keep its effective concentration in human plasma for a predetermined period of time. The effective concentration of compound A in plasma under stationary state can be calculated using the AUC and disappearing half life obtained in the human clinical test, the aforementioned drug release per unit hour, distribution volume, disappearing rate constant and the like pharmacokinetic parameters.
An example of the method for calculating its concentration in plasma under stationary state (Css) is shown in the following.
They were 86.9, 172, 1380 and 2758 ng/ml. Though there is a possibility that it varies depending on the influences of specific difference, individual difference and the like various factors, when an example is cited, effective concentration of the compound A in plasma is 35 ng/ml in a lower case, based on the aforementioned calculation result and from the aforementioned valued calculated from Tables 7 and 8. This is preferably 50 ng/ml, more preferably 87 ng/ml, and further more preferably 170 ng/ml.
In addition, it is desirable to control a PT ratio (Cmax/Cmin) which is the ratio of maximum concentration of the compound A in plasma (Cmax) to its minimum concentration in plasma (Cmin). It is possible to calculate the PT ratio from Tmax and T1/2, and the calculation is carried out in the following manner.
This value means that the hour of T1/2 passed 5.5 times after Tmax, and (½)^5.5=1/45. Thus, the PT ratio becomes 45.
Also, when supposed as twice a day administration, (12−2)/4=2.5. In the same manner as in the above, (½)^2.5=1/5.7. Thus, the PT ratio is 5.7. In addition, when the same calculation is carried out based on the minimum value 3.4 h of T1/2 (showing the effect without perspiration),

## C=C1CC2(CCN(C)CC2)O[C@H]1C [compound A, (−)-(S)-2,8-dimethyl-3-methylene-1-oxa-8-azaspiro[4.5]decane]
Release rate R=4.2 mg/h
  concentration in plasma under stationary state (Css): 86.9 ng/mL
Release rate R=8.3 mg/h
  concentration in plasma under stationary state (Css): 172 ng/mL
Release rate R=66.7 mg/h
  concentration in plasma under stationary state (Css): 1380 ng/mL
Release rate R=133.3 mg/h
  concentration in plasma under stationary state (Css): 2758 ng/mL
Once a day administration, T1/2 3.4 h
  PT ratio (Cmax/Cmin): 90.5
Once a day administration, Tmax 2, T1/2 4
  PT ratio (Cmax/Cmin): 45
Twice a day administration, T1/2 3.4 h
  PT ratio (Cmax/Cmin): 7.5
Twice a day administration, Tmax 2, T1/2 4
  PT ratio (Cmax/Cmin): 5.7
